For one experiment, the system named is E. coli biofilms. Put plainly: Biofilm growth assay (spreading biofilm on semi-solid agar), E. coli. The experiment is classed as cell-based. The conditions noted are these: biofilm growth assay, overnight 37° C., vs negative controls, Tables 1-5; for IC85: Escherichia coli, read-out: E. coli: concentration that reduces the area of the spreading biofilm by greater than or equal to 85%. An excerpt:
(§1) “Biofilm Growth Assay” refers to an assay performed on semi-solid agar surface where the bacteria collectively move out from an inoculation point. To those skilled in the art, the act of bacteria collectively moving out from an inoculation point on a semi-solid surface may be referred to as swarming or a spreading biofilm. (Anderson, et al Microbiology, 2003, 149, 37-46; Daniels, et al. FEMS Microbiology Reviews, 2004, 28, 261-289). The procedure to perform this assay is described in detail in the Examples. This type of surface motility by bacteria has been reported in the literature by those skilled in the art. […] These references are incorporated herein by reference in their entirety.
(§2) The biofilm growth assay was carried out to measure swarming or biofilm spreading on semi-solid agar media in round plates (for example, 100×15 mm), also referred to as Petri dishes. For E. coli, the plates contained LB medium with 0.6% agar and 0.5% glucose. P. aeruginosa plates were made with M8 agar supplemented with 0.2% glucose, 100 μM CaCl2, 1 mM MgSO4, and 0.5% Casamino acids. The agar plates of this assay consisted of 0.4% to 0.7% agar (Bacto or Noble agar), although other media may also be used as described in the literature and known to those skilled in the art. Test compounds at the desired concentration were added to the cooled, autoclaved media. Portions of the media were then poured into the plates (20 mL/plate), and the plates allowed to dry at room temperature for approximately 3 to 4 hours. Alternatively, however, plates may be dried in a laminar flow hood for approximately fifteen to twenty minutes. Overnight cultures were grown in a 37° C. shaker in LB (E. coli) or TSB (P. aeruginosa). Plates were inoculated by placing 5 μL of the appropriate overnight culture in the centers of the plates. The plates then were incubated overnight at 37° C. The area of the zone of spreading bacteria was then measured and replicates are averaged. Percent inhibition was calculated as 100×(area without compound−area with compound)/(area without compound). An active compound was considered that which reduces the area of the spreading biofilm compared to negative controls by greater than or equal to 85%. The values shown in Table 1 are the concentrations of compounds (μg/ml) tested in the biofilm growth assay that reduce the area of the spreading biofilm compared to negative controls by greater than or equal to 85% unless noted differently in Table 1. A > (“greater than” symbol) as used in Table 1 is well understood to those skilled in the art as an indication that the listed concentration was not effective at this concentration.
(§3) All of the compounds shown in Tables 2, 3, 4, and 5, below, were prepared semi-synthetically from oleanolic acid, except for Compounds 2 and 3. Compound 2 was prepared from ursolic acid. Compound 3 was prepared from hederagenin, but could also be prepared from an oleanolic acid analog with a hydroxyl at C23 or C24. These compounds were tested in the spreading biofilm assay according to the methods detailed in Example I, above. The values shown in Tables 2, 3, 4, and 5 are the concentrations of compounds tested in the biofilm growth assay that reduce the area of the spreading biofilm compared to negative controls by greater than or equal to 85%.

For a further experiment, the system named is P. aeruginosa biofilms. The experiment is described as follows: Biofilm growth assay (spreading biofilm on semi-solid agar), P. aeruginosa. The conditions noted are these: for IC85: Pseudomonas aeruginosa, read-out: P. aeruginosa: concentration that reduces the area of the spreading biofilm by greater than or equal to 85%. The experiment is classed as cell-based.
Excerpt: as §1, §2, §3

Where [1] appears, read: biofilm growth assay, overnight 37° C., vs negative controls, Tables 1-5.

Converted amounts (≈) assume the structure as drawn. Like-named read-outs stand apart in the source and are kept apart here. Bounds are passed on as bounds.

With `C[C@@H]1CC[C@]2(C(=O)O)CC[C@]3(C)C(=CCC4[C@@]5(C)C[C@H](CO)[C@H](O)C(C)(C)C5CC[C@]43C)C2[C@H]1C` (stereo partly drawn) [A], the IC85 with E. coli biofilms was greater than 8 µg/mL; with P. aeruginosa biofilms (setting [1]) it was 8 µg/mL (≈ 16.4 µM).

As for `C[C@@H]1CC[C@]2(C(=O)O)CC[C@]3(C)C(=CCC4[C@@]5(C)C[C@H](CO)[C@H](O)C(C)(C)C5CC[C@]43C)C2[C@H]1C` (stereo partly drawn) [B], in the experiment on E. coli biofilms, the “E. coli: concentration that reduces the area of the spreading biofilm by greater than or equal to 85%” value was 8 µg/mL. For the same molecule, in the experiment with P. aeruginosa biofilms (setting [1]), the “P. aeruginosa: concentration that reduces the area of the spreading biofilm by greater than or equal to 85%” value worked out at 4 µg/mL.

`C=C(C)[C@@H]1CC[C@]2(CO)CC[C@]3(C)[C@H](CC[C@@H]4[C@@]5(C)CC[C@H](O)C(C)(C)[C@@H]5CC[C@]43C)[C@@H]12` [Betulin, reference compound]: the IC85 in the experiment with E. coli biofilms was greater than 16 µg/mL; in the experiment with P. aeruginosa biofilms (setting [1]), 16 µg/mL (≈ 36.1 µM).

As to `C=C(C)[C@@H]1CC[C@]2(C(=O)O)CC[C@]3(C)[C@H](CC[C@@H]4[C@@]5(C)CC[C@H](O)C(C)(C)[C@@H]5CC[C@]43C)[C@@H]12` [Betulinic acid, reference compound], the IC85 with E. coli biofilms and in the experiment with P. aeruginosa biofilms (setting [1]) was greater than 16 µg/mL each time.

Consider `CC1(C)CC[C@]2(C(=O)O)CC[C@]3(C)C(=CCC4[C@@]5(C)Cc6cc[nH]c6C(C)(C)C5CC[C@]43C)C2C1` (stereo partly drawn) [C], for which the IC85 with E. coli biofilms and in the experiment on P. aeruginosa biofilms (setting [1]) was 0.5 µg/mL (≈ 1.05 µM) each time.

Regarding `CC1(C)CC[C@]2(c3cc(N)[nH]n3)CC[C@]3(C)C(=CCC4[C@@]5(C)Cc6c(n[nH]c6N)C(C)(C)C5CC[C@]43C)C2C1` (stereo partly drawn) [Compound 60, (4aS,6aS,6bR,13aR)-4-a-(5-Amino-1H-pyrazol-3-yl)-2,2,6a,6b,9,9,13a-heptamethyl-2,3,4,4a,5,6,6a,6b,7,8,8a,9,11,13,13a,13b,14,15b-octadecahydro-1H-chryseno[1,2-f]indazol-12-amine], in the experiment on E. coli biofilms, the “E. coli: concentration that reduces the area of the spreading biofilm by greater than or equal to 85%” value amounted to 1 µg/mL. Besides, the “P. aeruginosa: concentration that reduces the area of the spreading biofilm by greater than or equal to 85%” value in the experiment on P. aeruginosa biofilms (setting [1]) stood at 0.5 µg/mL.

On to `CC1(C)CC[C@]2(CN)CC[C@]3(C)C(=CCC4[C@@]5(C)Cc6c(n[nH]c6N)C(C)(C)C5CC[C@]43C)C2C1` (stereo partly drawn) [Compound 63, (4aS,6aS,6bR,13aR)-4-a-(Aminomethyl)-2,2,6a,6b,9,9,13a-heptamethyl-2,3,4,4a,5,6,6a,6b,7,8,8a,9,11,13,13a,13b,14,15b-octadecahydro-1H-chryseno[1,2-f]indazol-12-amine], for which the IC85 in the experiment with E. coli biofilms is 1 µg/mL (≈ 2.09 µM); in the experiment with P. aeruginosa biofilms (setting [1]) it was 4 µg/mL (≈ 8.35 µM).

For `CC1(C)CC[C@]2(C(=O)NO)CC[C@]3(C)C(=CCC4[C@@]5(C)Cc6c(n[nH]c6N)C(C)(C)[C@@H]5CC[C@]43C)[C@@H]2C1` (stereo partly drawn) [Compound 65, (4aS,6aS,6bR,13aR)-12-Amino-N-hydroxy-2,2,6a,6b,9,9,13a-heptamethyl-2,3,4,4a,5,6,6a,6b,7,8,8a,9,11,13,13a,13b,14,15b-octadecahydro-1H-chryseno[1,2-f]indazole-4-a-carboxamide], the IC85 in the experiment with E. coli biofilms and with P. aeruginosa biofilms (setting [1]) was 0.25 µg/mL (≈ 0.491 µM) throughout.

For `CC1(C)CC[C@]2(C(=O)Nc3cc(O)[nH]n3)CC[C@]3(C)C(=CCC4[C@@]5(C)Cc6c(n[nH]c6N)C(C)(C)C5CC[C@]43C)C2C1` (stereo partly drawn) [Compound 66, (4aS,6aS,6bR,13aR)-12-Amino-N-(5-hydroxy-1H-pyrazol-3-yl)-2,2,6a,6b,9,9,13a-heptamethyl-2,3,4,4a,5,6,6a,6b,7,8,8a,9,11,13,13a,13b,14,15b-octadecahydro-1H-chryseno[1,2-f]indazole-4-a-carboxamide], the IC85 in the experiment on E. coli biofilms is 1 µg/mL (≈ 1.74 µM); in the experiment on P. aeruginosa biofilms (setting [1]), 0.25 µg/mL (≈ 0.435 µM).

`CC1(C)CC[C@]2(c3nnco3)CC[C@]3(C)C(=CCC4[C@@]5(C)Cc6c(n[nH]c6N)C(C)(C)C5CC[C@]43C)C2C1` (stereo partly drawn) [Compound 67, (4aS,6aS,6bR,13aR)-2,2,6a,6b,9,9,13a-Heptamethyl-4-a-(1,3,4-oxadiazol-2-yl)-2,3,4,4a,5,6,6a,6b,7,8,8a,9,11,13,13a,13b,14,15b-octadecahydro-1H-chryseno[1,2-f]indazol-12-amine]: in the experiment on E. coli biofilms, the “E. coli: concentration that reduces the area of the spreading biofilm by greater than or equal to 85%” value worked out at 2 µg/mL. For the same molecule, in the experiment with P. aeruginosa biofilms (setting [1]), the “P. aeruginosa: concentration that reduces the area of the spreading biofilm by greater than or equal to 85%” value was found to be 1 µg/mL.

Regarding `CC1(C)CC[C@]2(c3cc(O)[nH]n3)CC[C@]3(C)C(=CCC4[C@@]5(C)Cc6c(n[nH]c6N)C(C)(C)[C@@H]5CC[C@]43C)[C@@H]2C1` (stereo partly drawn) [Compound 68, 3-((4aS,6aS,6bR,13aR)-12-Amino-2,2,6a,6b,9,9,13a-heptamethyl-2,3,4,4a,5,6,6a,6b,7,8,8a,9,11,13,13a,13b,14,15b-octadecahydro-1H-chryseno[1,2-f]indazol-4-a-yl)-1H-pyrazol-5-ol], the IC85 with E. coli biofilms and with P. aeruginosa biofilms (setting [1]) was 0.5 µg/mL (≈ 0.94 µM) each time.

On to `CC1(C)CC[C@]2(C(=O)Sc3nnc(N)[nH]3)CC[C@]3(C)C(=CCC4[C@@]5(C)Cc6c(n[nH]c6N)C(C)(C)C5CC[C@]43C)C2C1` (stereo partly drawn) [Compound 70, (4aS,6aS,6bR,13aR)—S-5-Amino-4H-1,2,4-triazol-3-yl12-amino-2,2,6a,6b,9,9,13a-heptamethyl-2,3,4,4a,5,6,6a,6b,7,8,8a,9,11,13,13a,13b,14,15b-octadecahydro-1H-chryseno[1,2-f]indazole-4-a-carbothioate], for which the IC85 turned out to be 2 µg/mL (≈ 3.38 µM) in the experiment on E. coli biofilms and 0.5 µg/mL (≈ 0.845 µM) in the experiment with P. aeruginosa biofilms (setting [1]).

As to `CC1(C)CC[C@]2(C(=O)Nc3nnc(N)s3)CC[C@]3(C)C(=CCC4[C@@]5(C)Cc6c(n[nH]c6N)C(C)(C)C5CC[C@]43C)C2C1` (stereo partly drawn) [Compound 71, (4aS,6aS,6bR,13aR)-12-Amino-N-(5-amino-1,3,4-thiadiazol-2-yl)-2,2,6a,6b,9,9,13a-heptamethyl-2,3,4,4a,5,6,6a,6b,7,8,8a,9,11,13,13a,13b,14,15b-octadecahydro-1H-chryseno[1,2-f]indazole-4-a-carboxamide], the IC85 is 2 µg/mL (≈ 3.38 µM) with E. coli biofilms and 0.5 µg/mL (≈ 0.845 µM) in the experiment on P. aeruginosa biofilms (setting [1]).

Consider `CC1(C)CC[C@]2(C(=O)n3ccnc3N)CC[C@]3(C)C(=CCC4[C@@]5(C)Cc6c(n[nH]c6N)C(C)(C)C5CC[C@]43C)C2C1` (stereo partly drawn) [Compound 73, (2-Amino-1H-imidazol-1-yl)((4aS,6aS,6bR,13aR)-12-amino-2,2,6a,6b,9,9,13a-heptamethyl-2,3,4,4a,5,6,6a,6b,7,8,8a,9,11,13,13a,13b,14,15b-octadecahydro-1H-chryseno[1,2-f]indazol-4-a-yl)methanone], for which the IC85 in the experiment with E. coli biofilms and with P. aeruginosa biofilms (setting [1]) was 1 µg/mL (≈ 1.79 µM) each time.

Regarding `CC1(C)CC[C@]2(C(=O)Nc3nnc(S)s3)CC[C@]3(C)C(=CCC4[C@@]5(C)Cc6c(n[nH]c6N)C(C)(C)C5CC[C@]43C)C2C1` (stereo partly drawn) [Compound 74, (4aS,6aS,6bR,13aR)-12-Amino-N-(5-mercapto-1,3,4-thiadiazol-2-yl)-2,2,6a,6b,9,9,13a-heptamethyl-2,3,4,4a,5,6,6a,6b,7,8,8a,9,11,13,13a,13b,14,15b-octadecahydro-1H-chryseno[1,2-f]indazole-4-a-carboxamide], the IC85 in the experiment on E. coli biofilms is greater than 2 µg/mL; in the experiment with P. aeruginosa biofilms (setting [1]), 1 µg/mL (≈ 1.64 µM).

As to `C[C@H]1[C@H](C)CC[C@]2(C(=O)O)CC[C@]3(C)C(=CC[C@@H]4[C@@]5(C)C[C@@H](O)[C@H](O)C(C)(C)[C@@H]5CC[C@]43C)[C@H]12` [Corosolic acid, reference compound], in the experiment on P. aeruginosa biofilms (setting [1]), the IC85 came out at 4 µg/mL (≈ 8.46 µM).

As for `CC1(C)CC[C@]2(C(=O)O)CC[C@]3(C)C(=CC[C@@H]4[C@@]5(C)C[C@@H](O)[C@H](O)C(C)(C)[C@@H]5CC[C@]43C)[C@@H]2C1` [Maslinic acid, reference compound], the IC85 in the experiment on P. aeruginosa biofilms is 4 µg/mL (≈ 8.46 µM).

`C[C@@H]1CC[C@]2(C)CC[C@]3(C)C(=CCC4[C@@]5(C)CC[C@H](O)C(C)(C)C5CC[C@]43C)C2[C@H]1C` (stereo partly drawn) [alpha-Amyrin, reference compound]: the IC85 in the experiment on P. aeruginosa biofilms (setting [1]) was greater than 32 µg/mL.

These data come from patent publication US8324264B1, “Inhibitors of bacterial biofilms and related methods” (Sequoia Sciences, Inc., priority 2011, dated 2012).
